Results from PMC4490784, “Compensatory induction of MYC expression by sustained CDK9 inhibition via a BRD4-dependent mechanism” (eLife, 2015).

Experiments:
DDR1 = target: T1, DDR1 (Homo sapiens, UniProt Q08345); test: KINOMEscan binding assay; details: read-out: % Retention on Solid Support
T1 construct: purchased DiscoveRx KINOMEscan
Protocol: (§1) As there are no commercial or in-house kinase assays available for CDK3, CDK5, CDK11 and CDK13, the inhibitory abilities of i-CDK9 toward these CDKs were thus evaluated in the DiscoveRx KINOMEscan assay, which is based on a proprietary active site-directed competition-binding platform ([Fabian et al., 2005]).
(§2) The inhibitory activity of i-CDK9 for CDK1-CycB (Upstate/Millipore), CDK2-CycA (Invitrogen), CDK4-CycD1 (Novartis), CDK7-CycH-MAT1 (Invitrogen), and CDK9-CycT1 (Invitrogen) was assessed in the AlphaScreen (PerkinElmer, Inc)-based kinase assay developed at Novartis. Briefly, each CDK–cyclin pair was pre-incubated with i-CDK9 for 15 min, followed by addition of kinase substrates (ELK for CDK1 and CDK2, RB for CDK4, and CDK7tide for CDK7 and CDK9). The mixture was incubated at room temperature for additional 4–5 hr. The reaction was stopped and read on Envision (PerkinElmer, Inc). Selectivity against a large panel of over 400 kinases was evaluated using the KINOMEscan platform (DiscoveRx, CA) employing a proprietary active site-directed competition binding assay ([Fabian et al., 2005]). The assay was conducted at two different concentrations of i-CDK9 (1 and 10 µM) by DiscoveRx.

FLT3(ITD) = test: KINOMEscan binding assay
Protocol: as §1, §2

PLK2 = target: T2, PLK2 (Homo sapiens, UniProt Q9NYY3); test: KINOMEscan binding assay
T2 construct: purchased DiscoveRx KINOMEscan
T2 sequence (Q9NYY3 whole entry): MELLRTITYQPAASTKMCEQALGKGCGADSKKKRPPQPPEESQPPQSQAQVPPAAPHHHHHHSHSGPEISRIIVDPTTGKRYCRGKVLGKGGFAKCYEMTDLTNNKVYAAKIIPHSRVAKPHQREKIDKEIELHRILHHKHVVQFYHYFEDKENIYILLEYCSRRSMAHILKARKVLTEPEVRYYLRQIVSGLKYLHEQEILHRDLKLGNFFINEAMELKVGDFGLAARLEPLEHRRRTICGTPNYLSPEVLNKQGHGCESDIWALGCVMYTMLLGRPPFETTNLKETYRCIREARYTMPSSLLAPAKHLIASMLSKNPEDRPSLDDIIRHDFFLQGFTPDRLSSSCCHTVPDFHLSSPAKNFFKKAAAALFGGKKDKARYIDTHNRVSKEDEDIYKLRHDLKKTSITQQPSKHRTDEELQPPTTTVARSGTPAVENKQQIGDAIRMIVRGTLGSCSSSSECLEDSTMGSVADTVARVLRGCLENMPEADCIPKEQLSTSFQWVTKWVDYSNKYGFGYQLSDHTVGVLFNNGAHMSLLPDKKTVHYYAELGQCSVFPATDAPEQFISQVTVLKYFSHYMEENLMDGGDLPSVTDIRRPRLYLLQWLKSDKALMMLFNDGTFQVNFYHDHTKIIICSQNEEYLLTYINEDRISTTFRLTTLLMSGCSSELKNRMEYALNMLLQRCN
Protocol: as §1, §2

SRC = target: T3, SRC (Homo sapiens, UniProt P12931); test: KINOMEscan binding assay; details: read-out: % Retention on Solid Support
T3 construct: purchased DiscoveRx KINOMEscan
T3 sequence (P12931 whole entry): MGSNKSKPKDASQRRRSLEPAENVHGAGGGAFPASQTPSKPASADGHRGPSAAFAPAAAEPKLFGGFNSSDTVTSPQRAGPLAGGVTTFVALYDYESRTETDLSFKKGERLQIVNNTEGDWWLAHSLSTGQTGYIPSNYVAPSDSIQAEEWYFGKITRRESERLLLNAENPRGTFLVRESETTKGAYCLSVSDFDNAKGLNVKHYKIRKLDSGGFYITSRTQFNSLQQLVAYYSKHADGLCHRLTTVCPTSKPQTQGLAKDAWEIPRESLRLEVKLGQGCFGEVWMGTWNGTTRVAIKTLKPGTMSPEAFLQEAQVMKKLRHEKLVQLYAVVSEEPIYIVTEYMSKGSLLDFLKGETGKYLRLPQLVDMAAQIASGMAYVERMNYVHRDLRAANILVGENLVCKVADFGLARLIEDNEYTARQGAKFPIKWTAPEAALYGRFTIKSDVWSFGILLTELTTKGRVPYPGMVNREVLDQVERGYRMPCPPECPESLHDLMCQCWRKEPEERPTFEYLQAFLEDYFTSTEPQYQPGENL
Protocol: as §1, §2

YES = target: T4, YES (Homo sapiens, UniProt P07947); test: KINOMEscan binding assay; details: read-out: % Retention on Solid Support
T4 construct: purchased DiscoveRx KINOMEscan
T4 sequence (P07947 whole entry): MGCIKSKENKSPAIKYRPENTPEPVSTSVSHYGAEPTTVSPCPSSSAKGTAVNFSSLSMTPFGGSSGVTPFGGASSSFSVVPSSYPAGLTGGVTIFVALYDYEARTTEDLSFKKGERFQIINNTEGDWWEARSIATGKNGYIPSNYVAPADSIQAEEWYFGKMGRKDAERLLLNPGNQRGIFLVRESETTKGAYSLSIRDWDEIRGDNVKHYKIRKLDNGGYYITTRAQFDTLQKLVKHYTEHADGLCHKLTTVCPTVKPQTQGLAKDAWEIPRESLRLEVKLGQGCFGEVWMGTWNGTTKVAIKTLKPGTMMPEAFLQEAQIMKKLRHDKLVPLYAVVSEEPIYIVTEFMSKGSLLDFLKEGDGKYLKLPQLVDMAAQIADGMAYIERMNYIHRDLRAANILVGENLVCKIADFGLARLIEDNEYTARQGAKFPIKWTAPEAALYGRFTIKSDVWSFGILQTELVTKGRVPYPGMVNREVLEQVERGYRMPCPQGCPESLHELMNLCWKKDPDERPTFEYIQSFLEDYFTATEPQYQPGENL
Protocol: as §1, §2

p38-alpha = target: T5, p38-alpha (Homo sapiens, UniProt Q16539); test: KINOMEscan binding assay
T5 construct: purchased DiscoveRx KINOMEscan
T5 sequence (Q16539 whole entry): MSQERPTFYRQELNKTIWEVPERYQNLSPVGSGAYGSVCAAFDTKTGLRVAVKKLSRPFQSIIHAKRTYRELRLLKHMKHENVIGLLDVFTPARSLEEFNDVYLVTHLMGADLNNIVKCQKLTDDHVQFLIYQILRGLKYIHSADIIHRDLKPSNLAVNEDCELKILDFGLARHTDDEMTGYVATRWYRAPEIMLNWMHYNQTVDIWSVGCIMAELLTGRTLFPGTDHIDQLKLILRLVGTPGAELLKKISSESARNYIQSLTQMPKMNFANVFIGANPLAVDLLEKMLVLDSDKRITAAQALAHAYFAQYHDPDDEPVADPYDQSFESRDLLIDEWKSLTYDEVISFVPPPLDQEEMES
Protocol: as §1, §2

PKNB(M.tuberculosis) = target: T6, PKNB(M.tuberculosis) (Mycobacterium tuberculosis, UniProt P9WI81); test: KINOMEscan binding assay; details: 1 µM i-CDK9; read-out: % Retention on Solid Support
T6 construct: purchased DiscoveRx KINOMEscan
T6 sequence (P9WI81 whole entry): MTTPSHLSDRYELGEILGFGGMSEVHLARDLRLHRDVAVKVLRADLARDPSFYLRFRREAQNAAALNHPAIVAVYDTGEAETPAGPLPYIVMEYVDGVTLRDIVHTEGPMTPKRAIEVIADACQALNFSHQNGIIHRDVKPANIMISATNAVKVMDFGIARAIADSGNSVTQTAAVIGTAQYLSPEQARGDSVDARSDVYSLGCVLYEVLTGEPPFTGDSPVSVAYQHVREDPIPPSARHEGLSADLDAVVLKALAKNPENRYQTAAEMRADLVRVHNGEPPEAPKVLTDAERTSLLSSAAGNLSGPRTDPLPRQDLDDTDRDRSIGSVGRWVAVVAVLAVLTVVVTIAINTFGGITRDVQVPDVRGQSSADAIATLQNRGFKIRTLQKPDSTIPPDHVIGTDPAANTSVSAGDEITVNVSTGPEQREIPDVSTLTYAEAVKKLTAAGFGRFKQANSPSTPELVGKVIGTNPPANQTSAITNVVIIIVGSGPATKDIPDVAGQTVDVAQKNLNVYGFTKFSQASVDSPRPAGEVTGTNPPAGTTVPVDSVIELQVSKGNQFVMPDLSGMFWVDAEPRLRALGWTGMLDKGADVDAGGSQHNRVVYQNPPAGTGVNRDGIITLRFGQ

[1] = system: MYC protein in HeLa cells; test: Immunoblotting of MYC protein in HeLa cell lysates; type: cell-based, human
Protocol: (§3) Figure 3. Induction of MYC mRNA production in response to sustained inhibition of CDK9 by i-CDK9 and the requirement of MYC's natural genomic structure in this process. (A) The indicated tumor cell lines were treated with i-CDK9 (0.5 μM) for 2–16 hr and the MYC mRNA levels, which were divided by those in the DMSO-treated cells and averaged from three independent replicates of DNA microarray analysis, were shown as log2 values. (B) HeLa cells were treated with the indicated concentrations of i-CDK9 for 8 hr and the various proteins in the total cell lysates were detected by immunoblotting as indicated. Quantifications of the levels of MYC protein and Ser2-phosphoryalted Pol II (pSer2) in the lysates were shown above and below the immunoblots, respectively. […] The levels of the indicated proteins were examined by immunoblotting. (G) A HeLa-based cell line containing the stably transfected, doxycycline (Dox)-inducible MYC-F-expressing plasmid driven by the CMV promoter was pretreated with (+) or without (−) Dox prior to incubation with i-CDK9 or DMSO. MYC and MYC-F expressed from the endogenous MYC locus and the transfected plasmid, respectively, were detected by immunoblotting. DOI: http://dx.doi.org/10.7554/eLife.06535.007 Figure 3—figure supplement 1. Biphasic response of MYC mRNA production throughout the course of CDK9 inhibition by i-CDK9. DOI: http://dx.doi.org/10.7554/eLife.06535.008 [drawing 2] Figure 3—Figure supplement 2. […] DOI: http://dx.doi.org/10.7554/eLife.06535.009 [drawing 3] TEXT PRINTED IN THE PICTURE: (B) i-CDK9: Fold increase in MYC protein: 1.0 (i-CDK9 (μM): 0); Fold increase in MYC protein: 1.2 (i-CDK9 (μM): 0.01); Fold increase in MYC protein: 1.7 (i-CDK9 (μM): 0.03); Fold increase in MYC protein: 3.6 (i-CDK9 (μM): 0.1); Fold increase in MYC protein: 5.2 (i-CDK9 (μM): 0.3); Fold increase in MYC protein: 5.5 (i-CDK9 (μM): 1.0) | (C) i-CDK9: Fold increase in MYC protein: 1.0 (0.3 μM i-CDK9 (h): 0); Fold increase in MYC protein: 0.9 (0.3 μM i-CDK9 (h): 1); Fold increase in MYC protein: 1.1 (0.3 μM i-CDK9 (h): 2); Fold increase in MYC protein: 1.2 (0.3 μM i-CDK9 (h): 4); Fold increase in MYC protein: 3.3 (0.3 μM i-CDK9 (h): 8)
First, the induction of MYC protein level was confirmed in HeLa cells treated with i-CDK9. […] It took 1.0 µM i-CDK9 to cause up to 85% reduction in pSer2. In a separate time-course analysis, the 8-hr incubation with i-CDK9 (0.3 μM) induced the MYC level by 3.3-fold, whereas the same condition reduced the pSer2 level by only 40% (Figure 3C). Thus, MYC expression was highly responsive to i-CDK9 treatment and occurred at a time point earlier and drug concentration lower than those required to achieve a significant suppression of Ser2 phosphorylation on the Pol II CTD.

[2] = system: Ser2-phosphorylated Pol II in HeLa cells; test: Immunoblotting of global pSer2 (Pol II CTD) in HeLa cell lysates; type: cell-based, human; details: 8 hr
Protocol: Inhibition of phosphorylation of both Pol II CTD and SPT5 is expected to block transcriptional elongation, which will effectively decrease the production of labile proteins from short-lived transcripts.
as §3
First, the induction of MYC protein level was confirmed in HeLa cells treated with i-CDK9. […] It took 1.0 µM i-CDK9 to cause up to 85% reduction in pSer2. In a separate time-course analysis, the 8-hr incubation with i-CDK9 (0.3 μM) induced the MYC level by 3.3-fold, whereas the same condition reduced the pSer2 level by only 40% (Figure 3C). […]

CDK9-CycT1 = CDK9-CycT1 (Homo sapiens, UniProt P50750); test: AlphaScreen-based kinase assay; type: biochemical; design: purchased Invitrogen
Chain of CDK9-CycT1 (P50750 whole entry): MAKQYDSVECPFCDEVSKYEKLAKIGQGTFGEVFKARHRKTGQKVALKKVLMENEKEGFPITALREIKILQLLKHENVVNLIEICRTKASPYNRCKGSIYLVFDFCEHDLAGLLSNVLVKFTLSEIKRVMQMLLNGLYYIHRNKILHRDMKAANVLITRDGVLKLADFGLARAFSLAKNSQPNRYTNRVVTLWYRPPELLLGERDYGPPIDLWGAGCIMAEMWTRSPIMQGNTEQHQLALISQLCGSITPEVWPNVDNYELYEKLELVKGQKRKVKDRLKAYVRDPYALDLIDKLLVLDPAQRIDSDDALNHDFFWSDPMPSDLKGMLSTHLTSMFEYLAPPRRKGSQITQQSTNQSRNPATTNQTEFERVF
Chain of CDK9-CycT1 (O60563 whole entry partner): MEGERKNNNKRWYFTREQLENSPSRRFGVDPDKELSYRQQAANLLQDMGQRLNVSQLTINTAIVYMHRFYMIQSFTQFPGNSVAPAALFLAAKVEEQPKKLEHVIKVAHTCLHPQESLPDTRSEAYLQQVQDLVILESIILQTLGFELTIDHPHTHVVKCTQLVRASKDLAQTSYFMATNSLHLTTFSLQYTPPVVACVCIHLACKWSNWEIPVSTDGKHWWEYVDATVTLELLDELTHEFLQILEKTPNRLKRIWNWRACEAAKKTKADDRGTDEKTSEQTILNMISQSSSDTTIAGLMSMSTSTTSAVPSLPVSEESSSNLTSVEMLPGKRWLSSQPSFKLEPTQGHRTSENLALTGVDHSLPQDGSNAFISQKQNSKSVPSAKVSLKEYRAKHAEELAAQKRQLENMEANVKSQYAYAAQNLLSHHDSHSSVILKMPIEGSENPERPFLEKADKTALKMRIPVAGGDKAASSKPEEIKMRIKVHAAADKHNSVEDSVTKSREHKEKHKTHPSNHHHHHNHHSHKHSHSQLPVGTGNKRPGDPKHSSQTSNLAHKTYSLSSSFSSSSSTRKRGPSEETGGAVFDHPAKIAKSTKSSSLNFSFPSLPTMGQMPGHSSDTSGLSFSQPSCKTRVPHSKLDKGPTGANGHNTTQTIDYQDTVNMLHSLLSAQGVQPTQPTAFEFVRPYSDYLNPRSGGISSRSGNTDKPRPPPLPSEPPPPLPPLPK
Protocol: as §2

T1 sequence (Q08345 19-913): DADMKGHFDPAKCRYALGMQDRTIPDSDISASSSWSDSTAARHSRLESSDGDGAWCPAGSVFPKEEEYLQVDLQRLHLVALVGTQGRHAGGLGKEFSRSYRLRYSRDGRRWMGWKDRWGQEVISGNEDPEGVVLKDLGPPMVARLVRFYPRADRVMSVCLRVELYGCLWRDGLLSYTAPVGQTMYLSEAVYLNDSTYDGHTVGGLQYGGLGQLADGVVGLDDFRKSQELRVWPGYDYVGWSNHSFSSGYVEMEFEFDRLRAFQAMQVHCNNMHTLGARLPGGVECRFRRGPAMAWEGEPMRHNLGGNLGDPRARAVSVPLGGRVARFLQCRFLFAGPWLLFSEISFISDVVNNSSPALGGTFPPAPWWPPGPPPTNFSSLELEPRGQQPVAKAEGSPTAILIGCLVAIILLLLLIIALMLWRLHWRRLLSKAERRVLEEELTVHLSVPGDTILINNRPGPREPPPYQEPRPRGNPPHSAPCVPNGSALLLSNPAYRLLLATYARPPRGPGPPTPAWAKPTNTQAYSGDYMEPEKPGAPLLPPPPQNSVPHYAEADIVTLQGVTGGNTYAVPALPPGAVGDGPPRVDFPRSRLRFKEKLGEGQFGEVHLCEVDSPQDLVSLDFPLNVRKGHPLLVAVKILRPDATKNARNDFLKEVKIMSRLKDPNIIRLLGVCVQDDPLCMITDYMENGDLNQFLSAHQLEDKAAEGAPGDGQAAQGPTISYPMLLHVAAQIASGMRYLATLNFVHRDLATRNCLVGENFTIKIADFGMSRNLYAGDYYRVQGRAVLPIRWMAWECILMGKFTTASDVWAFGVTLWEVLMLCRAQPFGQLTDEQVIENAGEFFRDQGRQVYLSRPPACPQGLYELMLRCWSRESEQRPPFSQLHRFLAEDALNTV

How did the remaining binding at 1 µM (DDR1; 1 µM i-CDK9) turn out when `N[C@H]1CC[C@H](Nc2cc(-c3cccc(NCc4cccc(F)c4)n3)c(Cl)cn2)CC1` [i-CDK9, N2′-(trans-4-aminocyclohexyl)-5′-chloro-N6-(3-fluorobenzyl)-2,4′-bipyridine-2′,6-diamine] was run?
Its remaining binding at 1 µM is 100%.

And the remaining binding at 10 µM (DDR1; 10 µM i-CDK9)?
Its remaining binding at 10 µM is 92%.

What about the “% Retention on Solid Support” value (FLT3(ITD); 1 µM i-CDK9) of the same molecule?
The value was 100%.

And the “% Retention on Solid Support” value (FLT3(ITD); 10 µM i-CDK9)?
The value was 72%.

What about the “% Retention on Solid Support” value (PLK2; 1 µM i-CDK9) of the same molecule?
Its value is 100%.

And the “% Retention on Solid Support” value (PLK2; 10 µM i-CDK9)?
The value was 100%.

And the remaining binding at 1 µM (SRC; 1 µM i-CDK9)?
Its remaining binding at 1 µM is 87%.

What about the remaining binding at 10 µM (SRC; 10 µM i-CDK9) of the same molecule?
Its remaining binding at 10 µM is 100%.

What about the remaining binding at 1 µM (YES; 1 µM i-CDK9) of the same molecule?
The remaining binding at 1 µM was 84%.

And the remaining binding at 10 µM (YES; 10 µM i-CDK9)?
The remaining binding at 10 µM was 90%.

And the “% Retention on Solid Support” value (p38-alpha; 1 µM i-CDK9)?
The value was 85%.

What about the “% Retention on Solid Support” value (p38-alpha; 10 µM i-CDK9) of the same molecule?
The value was 100%.

What about the remaining binding at 1 µM (PKNB(M.tuberculosis)) of the same molecule?
Its remaining binding at 1 µM is 100%.

And the “Fold increase in MYC protein” value ([1]; 0.01 μM, 8 hr)?
The value was 1.2 fold.

And the “Fold increase in MYC protein” value ([1]; 0.03 μM, 8 hr)?
The value was 1.7 fold.

And the “Fold increase in MYC protein” value ([1]; 0.1 μM, 8 hr)?
The value was 3.6 fold.

What about the “Fold increase in MYC protein” value ([1]; 0.3 μM, 1 h (time course)) of the same molecule?
The value was 0.9 fold.

And the “Fold increase in MYC protein” value ([1]; 0.3 μM, 2 h (time course))?
Its value is 1.1 fold.

What about the “Fold increase in MYC protein” value ([1]; 0.3 μM, 4 h (time course)) of the same molecule?
The value was 1.2 fold.

And the “Fold increase in MYC protein” value ([1]; 0.3 μM, 8 h (time course))?
The value was 3.3 fold.

And the “Fold increase in MYC protein” value ([1]; 0.3 μM, 8 hr (dose series))?
The value was 5.2 fold.

And the “Fold increase in MYC protein” value ([1]; 1.0 μM, 8 hr)?
Its value is 5.5 fold.

What about the MYC induction ([1]; 2 μM added at time zero) of the same molecule?
The MYC induction was “No MYC induction”.

And the “decrease of global pSer2 level” value ([2]; 0.1 μM)?
Its value is 23%.

What about the “reduction in global pSer2” value ([2]; 0.3 μM, Figure 4-figure supplement 1) of the same molecule?
Its value is “about 50%”.

And the “reduction in pSer2” value ([2]; 1.0 μM)?
Its value is “up to 85%”.

And the “pSer2 in the Pol II CTD and pThr775 in SPT5” value ([2]; dose-dependent)?
Its value is “markedly reduced”.

And the IC50 (CDK9-CycT1)?
Its IC50 is at most 0.4 nM.

And the “fold lower activity toward CDK1-CycB, CDK2-CycA, CDK4-CycD1, CDK7-CycH-MAT1 and CDK8-CycC compared to CDK9-CycT1” value (CDK9-CycT1; selectivity)?
The value was “at least 600 fold”.
